These molecules were tested on Human pleural mesothelioma cells NCI-H226 (assay: Proliferation inhibition assay of human pleural mesothelioma cells NCI-H226 (CCK8)). Details: 72 h, 3 days incubation.
Assay type: cell-based
Description: Experimental Example 1 Cell Anti-Proliferation Test
Proliferation Inhibition Assay of Human Pleural Mesothelioma Cells NCI-H226 by YAP-TEAD Inhibitor Compounds
Experimental materials and equipment: Human pleural mesothelioma cells NCI-H226 were purchased from Nanjing Cobioer Biosciences CO., LTD. RPMI-1640 medium (Bio-Channel), DMSO (dimethyl sulfoxide), CCK8 (WST-8) cell analysis kit (Beyotime), 0.25% EDTA-Tripsin (trypsin solution), 1×PBS (phosphate buffer, PH7.2), 96-well plate (Corning), fetal bovine serum (FBS), 10,000 U/mL penicillin-G/streptomycin, high-speed cryo-centrifuge (EPPENDORF 5810R), enzyme-linked immunoassay (Tecan Spark).
• A) Tumor cells were cultured in RPMI-1640 (containing 10% FBS and 100 U/mL penicillin-G/streptomycin) at 37° C., 5% CO^2 and saturated humidity until 80-90% density. • B) Removed the culture medium from 10 cm Petri dishes; • C) Rinsed the cells once with 10 ml 1×PBS; • D) Added 4 ml 0.25% EDTA-Tripsin into 37° C., 5% CO^2 incubator for trypsin digestion for 5 minutes, transferred to 15 ml centrifuge tube, centrifuged at 200 g for 5 minutes, discarded the supernatant to get cell precipitate; • E) Resuspend with 4 ml DMEM medium, count and adjust to 10,000 cells/ml. • F) Added cell suspension to 96-well plate with 100 μL per well volume and incubate overnight at 37° C., 5% CO^2 incubator.
• A) Preparation of gradient dilution solution of tested compounds: the test compounds were configured into 1 mM reservoir solution. Then 1.5 μl of the reservoir solution was dissolved in 1.5 ml of DMSO-free culture solution, and then a 3-fold serial gradient dilution was performed with 0.1% DMSO culture solution for a total of 9 concentrations, and the concentrations of the compounds after dilution were as follows: • 333.33 nM, 111.11 nM, 37.03 nM, 12.35 nM, 4.15 nM, 1.37 nM, 0.46 nM, 0.15 nM • B) After thorough mixing, 100 μL of culture compound solution was taken separately to replace the culture solution in the cell culture plate, with 4 replicate wells for each concentration; • C) The cells were transferred to the incubator and incubated for 3 days.
• A) Removed the cell culture plate and added 10 μl of CCK-8 (WST-8) solution per well in the biosafety cabinet. • B) Placed the cell culture plate back into the incubator and continued incubation for 3 hours. • C) Determined the absorbance value by selecting 450 nm on a TECAN enzyme-linked immunoassay detector.
The cell viability (% Cell Viability) was calculated using the following formula.
[formula] • A (dosing): absorbance of wells with cells, CCK8 solution and drug solution • A (blank): absorbance of wells with medium and CCK8 solution but no cells • A (0 dosing): absorbance of wells with cells, CCK8 solution and no drug solution • Cell viability: Cell proliferation viability or cytotoxicity viability IC50 values were obtained by curve fitting with GraphPad Prism 8 software.

Structure (SMILES) | IC50
C=CC(=O)N1CCC(c2cc(-c3cn[nH]c3)cnc2Nc2ccc(C(F)(F)F)cc2)CC1 [Compound T55] | 100 to 1000 nM
C=CC(=O)N1CCC(c2cccnc2N(C)c2ccc(C(F)(F)F)cc2)CC1 [Compound T63] | 100 to 1000 nM
C=CC(=O)N1CCC(c2c(OC)ccnc2Nc2ccc(C(F)(F)F)cc2)CC1 [Compound T35] | 100 to 1000 nM
C=CC(=O)N1CCC(c2cncnc2Nc2ccc(C(F)(F)F)cc2)CC1 [Compound T43] | 100 to 1000 nM
C=CC(=O)N1CCC(c2cc(-c3ccncc3)cnc2Nc2ccc(C(F)(F)F)cc2)CC1 [Compound T97] | 1000 to 5000 nM
C=CC(=O)N1CCC(c2cc(-c3cccs3)cnc2Nc2ccc(C(F)(F)F)cc2)CC1 [Compound T99] | 1000 to 5000 nM
C=CC(=O)N1CCC(c2ccc(F)nc2Nc2ccc(C(F)(F)F)cc2)CC1 [Compound T24] | ≤ 100 nM
CC/C=C/C(=O)N1CCC(c2cccnc2Nc2ccc(C(F)(F)F)cc2)CC1 [Compound T52] | 1000 to 5000 nM
C=CC(=O)N1CCC(c2cc(OC)cnc2Oc2ccc(C(F)(F)F)cc2)CC1 [Compound T73] | 100 to 1000 nM

Other lines, results leading:

IC50 | Structure (SMILES)
≤ 100 nM | C=CC(=O)N1CC2(C1)CN(c1nccnc1Nc1ccc(C(F)(F)F)cc1)C2 [Compound T57]
≤ 100 nM | C=CC(=O)N1CC=C(c2nccnc2Nc2ccc(C(F)(F)F)cc2)CC1 [Compound T17]
≤ 100 nM | C=CC(=O)N1CCC(c2c(F)ccnc2Nc2ccc(C(F)(F)F)cc2)CC1 [Compound T26]
≤ 100 nM | C=CC(=O)N1CCC(c2nccnc2Nc2ccc(C(F)(F)F)cc2)C1 (centres unmarked) [Compound T18]
≤ 100 nM | C=CC(=O)N1CC(c2cccnc2Nc2ccc(C)cc2)C1 [Compound T15]
≤ 100 nM | C=CC(=O)N1CC(c2nccnc2Nc2ccc(C(F)(F)F)cc2)C1 [Compound T20]

Same assay, conditions: 72 h, 3 days incubation, reference compounds of WO2009081259A1

IC50 | Structure (SMILES)
> 5000 nM | FC(F)(F)c1ccc(Nc2ncc(Cl)cc2C2CCNCC2)cc1 [Reference compound 4, reference compound]
> 5000 nM | FC(F)(F)c1ccc(Oc2ncccc2C2CCNCC2)cc1 [Reference compound 6, reference compound]
> 5000 nM | Cc1ccc(C2CCNCC2)c(Nc2ccc(C(F)(F)F)cc2)n1 [Reference compound 2, reference compound]
> 5000 nM | FC(F)(F)c1ccc(Oc2ncc(Cl)cc2C2CCNCC2)cc1 [Reference compound 7, reference compound]

What follows are molecules tested on YAP-TEAD (assay: Nano luciferase method to detect YAP-TEAD inhibitor activity (293T cells transfected with pGL3B-8×GTiiC-nLuc-CMV-fLuc)). Details: Homo sapiens, HEK-293T; transfected 293T cells, 48 hours incubation; read-out: Nano Luciferas detection (IC50).
Assay type: cell-based
Description: Experimental Example 2 Nano Luciferase Method to Detect YAP-TEAD Inhibitor Activity
(1) Experimental materials and equipment: 293T cells were purchased from Nanjing Cobioer Biosciences CO., LTD. DMEM medium (high sugar, phenol red free, Bio-Channel), DMSO (dimethyl sulfoxide), Lipo6000™ transfection reagent (Beyotime), pGL3B-8×GTiiC-nLuc-CMV-fLuc plasmid, 0.25% EDTA Tripsin (trypsin solution), 1×PBS (phosphate buffer, PH7.2), 96-well white cell culture plate (PerkinElmer), Fetal Bovine Serum (FBS), 10,000 U/mL penicillin-G/streptomycin, High-speed cryo-centrifuge (EPPENDORF 5810R), 37° C. CO^2 incubator, Vi-Cell® cell counter, Envision microplate reader (PerkinElmer).
Resuscitated 293T cells were inoculated into 10 cm petri dishes and placed in a 5% CO^2 incubator at a constant temperature of 37° C. To ensure transfection efficiency, cells in the logarithmic phase (cell density of about 50%-70%) should be used.
One day before transfection, cells in logarithmic phase were digested with Trypsin-EDTA, the reaction was terminated by adding medium, and the cell suspension was made by blowing and mixing with a pipette.
The cell concentration was determined using Vi-cell and diluted to a suspension of 5*10^5 cells per milliliter. Once the cell suspension was prepared, it was gently mixed and 10 ml of liquid was added to a 10 cm petri dish. […] The cells were incubated in a 5% CO^2 incubator at 37° C. for 1 day.
Take two clean and sterile centrifuge tubes, added 750 μL of opti-MEM Medium without antibiotics and serum respectively, then added […] of plasmid (pGL3B-8×GTiiC-nLuc-CMV-fLuc) to one of the tubes and gently blown with a pipette for mixing; the other tube was added with Lipo6000 transfection reagent and gently blown with a pipette for mixing. After standing at room temperature for 5 minutes, the culture medium containing DNA was gently added to the culture medium containing Lipo6000 transfection reagent, mixed by gently inverting the centrifuge tube, and stood at room temperature for 5 minutes.
The above mixture was added evenly dropwise to a 10-cm petri dish and replaced with fresh complete medium after 6 h of incubation.
After 1 day of transfection, Trypsin EDTA was used to digest the cells, medium was added to terminate the reaction, and a cell suspension was made by blowing and mixing with a pipette.
Cell concentration was determined using Vi-cell, and diluted to a suspension of 20,000 cells per milliliter.
After the cell suspension was prepared, it was gently mixed and 100 μL was added to each well in a 96-well plate so that the density of cells to be measured was 2000 per well.
The inoculated cell culture plates were incubated in an incubator, and the compounds in concentration gradients were added after about 24 hours.
The 10 mM compound reservoir solution was diluted to 50 μM with culture medium, and 50 μM compound solution was added sequentially to the third column of the deep-well plate, and 216 μL of culture medium containing 0.5% DMSO to the fourth to eleventh columns.
Gradient dilution: 100 μL of solution was pipetted from the third column and added to the fourth column, after mixing; another 100 μL of solution was pipetted from the fourth column and added to the fifth column, and the operation was repeated until the eleventh column.
Using a multichannel pipette, 25 μL of compound solution was pipetted from the deep-well plate and added to the 96-well culture plate, and each compound was repeated four times on the 96-well plate. A concentration gradient with a maximum concentration of 10,000 nM, 1:3.16, was eventually formed on the 96-well plate.
The 96-well plate was incubated in a 5% CO^2 incubator at a constant temperature of 37° C. for 48 hours, then removed and equilibrated at room temperature for 10 minutes.
100 μL of detection reagent was added to each well and placed on a horizontal shaker at low speed for 10 minutes to fully lyse the cells. […]

Structure (SMILES) | IC50
C=CC(=O)N1CCC(c2cc(-c3cn[nH]c3)cnc2Nc2ccc(C(F)(F)F)cc2)CC1 [Compound T55] | 100 to 1000 nM
C=CC(=O)N1CCC(c2cccnc2N(C)c2ccc(C(F)(F)F)cc2)CC1 [Compound T63] | 100 to 1000 nM
C=CC(=O)N1CCC(c2c(OC)ccnc2Nc2ccc(C(F)(F)F)cc2)CC1 [Compound T35] | 100 to 1000 nM
C=CC(=O)N1CCC(c2cncnc2Nc2ccc(C(F)(F)F)cc2)CC1 [Compound T43] | 100 to 1000 nM
C=CC(=O)N1CCC(c2cc(-c3ccncc3)cnc2Nc2ccc(C(F)(F)F)cc2)CC1 [Compound T97] | 100 to 1000 nM
C=CC(=O)N1CCC(c2cc(-c3cccs3)cnc2Nc2ccc(C(F)(F)F)cc2)CC1 [Compound T99] | 100 to 1000 nM
C=CC(=O)N1CCC(c2ccc(F)nc2Nc2ccc(C(F)(F)F)cc2)CC1 [Compound T24] | ≤ 100 nM
CC/C=C/C(=O)N1CCC(c2cccnc2Nc2ccc(C(F)(F)F)cc2)CC1 [Compound T52] | 100 to 1000 nM
C=CC(=O)N1CCC(c2cc(OC)cnc2Oc2ccc(C(F)(F)F)cc2)CC1 [Compound T73] | 100 to 1000 nM

Now from value to molecule:

IC50 | Structure (SMILES)
≤ 100 nM | C=CC(=O)N1CC2(C1)CN(c1nccnc1Nc1ccc(C(F)(F)F)cc1)C2 [Compound T57]
≤ 100 nM | C=CC(=O)N1CC=C(c2nccnc2Nc2ccc(C(F)(F)F)cc2)CC1 [Compound T17]
≤ 100 nM | C=CC(=O)N1CCC(c2c(F)ccnc2Nc2ccc(C(F)(F)F)cc2)CC1 [Compound T26]
≤ 100 nM | C=CC(=O)N1CCC(c2nccnc2Nc2ccc(C(F)(F)F)cc2)C1 (centres unmarked) [Compound T18]
≤ 100 nM | C=CC(=O)N1CC(c2cccnc2Nc2ccc(C)cc2)C1 [Compound T15]
≤ 100 nM | C=CC(=O)N1CC(c2nccnc2Nc2ccc(C(F)(F)F)cc2)C1 [Compound T20]

Same assay, conditions: Homo sapiens, HEK-293T; transfected 293T cells, 48 hours incubation; reference compounds of WO2009081259A1; read-out: Nano Luciferas detection (IC50)

IC50 | Structure (SMILES)
> 5000 nM | FC(F)(F)c1ccc(Nc2ncc(Cl)cc2C2CCNCC2)cc1 [Reference compound 4, reference compound]
> 5000 nM | FC(F)(F)c1ccc(Oc2ncccc2C2CCNCC2)cc1 [Reference compound 6, reference compound]
> 5000 nM | Cc1ccc(C2CCNCC2)c(Nc2ccc(C(F)(F)F)cc2)n1 [Reference compound 2, reference compound]
> 5000 nM | FC(F)(F)c1ccc(Oc2ncc(Cl)cc2C2CCNCC2)cc1 [Reference compound 7, reference compound]
